# Measured values reported in patent US11053226B2, “KRAS G12C inhibitors and methods of using the same” (Amgen Inc., priority 2018, dated 2021).
# Read-outs that look alike come from different tables or passages of the source.
# Key:
# [1] = target: GDP-bound KRAS protein (aa 1-169), containing both G12C and C118A amino acid substitutions (Homo sapiens (Human), UniProt P01116, C118A/G12C); assay: Coupled Nucleotide Exchange Assay; assay type: biochemical
# Description: (§1) For compounds in Table 9, the following assay conditions were employed:
# Coupled Nucleotide Exchange Assay:
# The assay plates were then read on a PerkinElmer EnVision Multilabel Reader, using AlphaScreen® technology, and data were analyzed using a 4-parameter logistic model to calculate IC50 values.
# [2] = system: Phosphorylation of ERK1/2 in MIA PaCa-2 cells; assay: Phospho-ERK1/2 MSD Assay; assay type: cell-based; details: Homo sapiens, MiaPaCa-2 cells
# Description: as §1
# Phospho-ERK1/2 MSD Assay:
# Sixteen hours prior to compound treatment, MIA PaCa-2 cells were seeded in 96-well cell culture plates at a density of 25,000 cells/well and incubated at 37° C., 5% CO2. […] Following compound treatment, cells were stimulated with 10 ng/mL EGF (Roche 11376454001) for 10 min, washed with ice-cold Dulbecco's phosphate-buffered saline, no Ca^2+ or Mg^2+ (ThermoFisher Scientific 14190144), and then lysed in RIPA buffer (50 mM Tris-HCl pH 7.5, 1% Igepal, 0.5% sodium deoxycholate, 150 mM NaCl, and 0.5% sodium dodecyl sulfate) containing protease inhibitors (Roche 4693132001) and phosphatase inhibitors (Roche 4906837001). […] Assay plates were read on a Meso Scale Discovery Sector Imager 6000, and data were analyzed using a 4-parameter logistic model to calculate IC50 values.
# [3] = system: Phosphorylation of ERK1/2 in A549 cells; assay: Phospho-ERK1/2 MSD Assay (A549); assay type: cell-based; details: Homo sapiens
# [4] = read-out: Coupled Exchange IC50 (2 h), 2 h compound pre-incubation
# [5] = MIA PaCa-2, read-out: pERK IC50 (4 h), 4 h compound treatment
# [6] = read-out: pERK IC50 (4 h), 4 h compound treatment
# [7] = read-out: Coupled Exchange IC50 (20 h), 20 h compound pre-incubation
# [8] = MIA PaCa-2, 4 h, read-out: pERK IC50 (4 h, MiaPaCa-2), 4 h compound treatment
# [9] = A549, 4 h, read-out: pERK IC50 (4 h, A549), 4 h compound treatment
# Sequence of GDP-bound KRAS protein (aa 1-169), containing both G12C and C118A amino acid substitutions (P01116 other isoform, or with tags, fused parts or gaps G12C/C118A): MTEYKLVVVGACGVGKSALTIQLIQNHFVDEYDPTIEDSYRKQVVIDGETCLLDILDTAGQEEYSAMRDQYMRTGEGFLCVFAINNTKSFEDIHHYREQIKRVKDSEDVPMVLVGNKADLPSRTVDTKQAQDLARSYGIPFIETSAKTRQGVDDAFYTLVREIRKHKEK
SMILES,"IC50 [1, 4] [nM]","IC50 [2, 5] [nM]","IC50 [3, 6] [nM]","IC50 [1, 7] [nM]","IC50 [2, 8] [nM]","IC50 [3, 9] [nM]","IC50 ([1]; read-out: Coupled Exchange IC50 (5 min), 5 min compound pre-incubation) [nM]",Coupled Exchange IC50 (5 min) ([1]; 5 min compound pre-incubation) [nM],Coupled Exchange IC50 (2 h) ([1]; 2 h compound pre-incubation) [nM]
"C=CC(=O)N1CC(NC(=O)Cn2c(C)c(-c3ccccc3N3CCCC3)c3cc(Cl)ccc32)C1 [Example 5-4, 2-(5-Chloro-2-methyl-3-(2-(1-pyrrolidinyl)phenyl)-1H-indol-1-yl)-N-(1-(2-propenoyl)-3-azetidinyl)acetamide]",380,5490,> 100000,–,–,–,–,–,–
C=CC(=O)N1CC(NC(=O)Cn2c3c(c4cc(Br)ccc42)CCCC3)C1 [Example 160],4950,58300,> 100000,1070,–,–,–,–,–
"C=CC(=O)N1CC(NC(=O)Cn2c(C)c(-c3cnccc3C(C)C)c3cc(Cl)ccc32)C1 [Example 5-1, 2-(5-Chloro-2-methyl-3-(4-(2-propanyl)-3-pyridinyl)-1H-indol-1-yl)-N-(1-(2-propenoyl)-3-azetidinyl)acetamide]",780,1320,> 100000,–,–,–,–,–,–
C=CC(=O)N1CC(NC(=O)Cn2c3ccccc3c3c(Br)cccc32)C1 [Example 117],2050,29600,> 100000,430,–,–,–,–,–
C=CC(=O)N1CC(NC(=O)Cn2c(C)c(C(=O)N3[C@H](C)c4ccc(F)cc4C[C@@H]3C)c3cc(Br)cc(C)c32)C1 [Example 9],200,–,–,–,1560,41600,–,–,–
C=CC(=O)N1CC(NC(=O)Cn2c(C)c(-c3ccccc3-c3ccccc3)c3cc(Cl)ccc32)C1 [Example 67],830,8800,> 100000,240,–,–,3900,–,–
C=CC(=O)N1CC(NC(=O)Cn2c(C)c(C(=O)N3CCc4c(O)cccc4C3)c3cc(Br)ccc32)C1 [Example 58],280,–,–,110,6810,> 33300,–,–,–
C=CC(=O)N1CC(N(C)C(=O)Cn2c(C)c(C(=O)N3CCN(c4ccc(Br)cn4)CC3)c3cc(Br)ccc32)C1 [Example 21],490,–,–,100,1950,27300,–,–,–
C=CC(=O)N1CC(NC(=O)Cn2c3ccc(Br)cc3c3c(Cl)ccnc32)C1 [Example 75],3730,11300,> 100000,430,–,–,–,–,–
C=CC(=O)N1CC(NC(=O)Cn2c(C)c(C(=O)N3Cc4ccccc4CC3C)c3cc(Br)cc(C)c32)C1 (centres unmarked) [Example 39],330,–,–,–,3350,60300,–,–,–
C=CC(=O)N1CC(NC(=O)Cn2c(C)c(C(=O)N3[C@H](C)CN(c4ccc(C#N)cn4)C[C@H]3C)c3cc(Br)ccc32)C1 [Example 22],190,–,–,–,2020,> 100000,–,–,–
C=CC(=O)N1CC(NC(=O)Cn2cc(C(=O)NCCc3ccc(Cl)cc3Cl)c3cc(Br)ccc32)C1 [Example 161],990,–,–,230,79500,> 100000,–,–,–
"C=CC(=O)N1CC(NC(=O)Cn2c(C)c(C(=O)N3CCc4ccccc4[C@@H]3C)c3cc(Br)cc(C)c32)C1 [Example 2-2-2, 2-(5-Bromo-2,7-dimethyl-3-(((1S)-1-methyl-3,4-dihydro-2(1H)-isoquinolinyl)carbonyl)-1H-indol-1-yl)-N-(1-(2-propenoyl)-3-azetidinyl)acetamide]",420,–,–,–,3010,61000,–,–,–
C=CC(=O)N1CC(NC(=O)Cn2cc(C(=O)NCCC(=O)Nc3cccc4ccccc34)c3cc(Br)ccc32)C1 [Example 170],3000,–,–,650,> 100000,> 100000,–,–,–
C=CC(=O)N1CC(NC(=O)Cn2c(C)c(-c3ccccc3N(C)C)c3cc(Cl)ccc32)C1 [Example 98],1120,18200,13200,–,–,–,–,–,–
C=CC(=O)N1CC(NC(=O)Cn2c(C)c(C(=O)N3CCc4c(ccnc4OC)C3)c3cc(Cl)ccc32)C1 [Example 28],590,–,–,180,2630,> 100000,–,–,–
"C=CC(=O)N1CC(NC(=O)Cn2c(CC)c(C(=O)N3CCc4c(ccnc4OC)C3)c3cc(Cl)cc(C)c32)C1 [Example 1-1, 2-(5-Chloro-2-ethyl-3-((5-methoxy-3,4-dihydro-2,6-naphthyridin-2(1H)-yl)carbonyl)-7-methyl-1H-indol-1-yl)-N-(1-(2-propenoyl)-3-azetidinyl)acetamide]",–,–,–,–,90,> 100000,–,200,70
